Broadly, the IC50 is the concentration at which inhibition is half-maximal. A higher IC50 goes with lower potency.

53 molecules from patent US11214565B2, “Compound, compositions, and methods” (Denali Therapeutics Inc., priority 2015, dated 2022) can be followed below.

Where only a bound is given, the exact number is not on record here.

The first assay deals with LRRK2 G2019S enzyme (Homo sapiens (Human), UniProt Q5S007, G2019S). As to the kind of experiment: LRRK2 G2019S TR-FRET biochemical kinase assay (LRRKtide substrate). Particulars: Table A-2; 5 nM LRRK2, 134 μM ATP, 60 minute reaction, 23° C. The gist of the method: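 TR-FRET phospho-LRRKtide readout (2 nM antibody, 10 mM EDTA, 60 min) after a 60 min, 23 °C kinase reaction. The reaction used 134 μM ATP and 5 nM enzyme in pH 7.5 Tris/MgCl2/EGTA/DTT buffer, with compound and enzyme-substrate mix preincubated for 20 min beforehand.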
LRRK2 G2019S enzyme, sequence (Q5S007 whole entry G2019S): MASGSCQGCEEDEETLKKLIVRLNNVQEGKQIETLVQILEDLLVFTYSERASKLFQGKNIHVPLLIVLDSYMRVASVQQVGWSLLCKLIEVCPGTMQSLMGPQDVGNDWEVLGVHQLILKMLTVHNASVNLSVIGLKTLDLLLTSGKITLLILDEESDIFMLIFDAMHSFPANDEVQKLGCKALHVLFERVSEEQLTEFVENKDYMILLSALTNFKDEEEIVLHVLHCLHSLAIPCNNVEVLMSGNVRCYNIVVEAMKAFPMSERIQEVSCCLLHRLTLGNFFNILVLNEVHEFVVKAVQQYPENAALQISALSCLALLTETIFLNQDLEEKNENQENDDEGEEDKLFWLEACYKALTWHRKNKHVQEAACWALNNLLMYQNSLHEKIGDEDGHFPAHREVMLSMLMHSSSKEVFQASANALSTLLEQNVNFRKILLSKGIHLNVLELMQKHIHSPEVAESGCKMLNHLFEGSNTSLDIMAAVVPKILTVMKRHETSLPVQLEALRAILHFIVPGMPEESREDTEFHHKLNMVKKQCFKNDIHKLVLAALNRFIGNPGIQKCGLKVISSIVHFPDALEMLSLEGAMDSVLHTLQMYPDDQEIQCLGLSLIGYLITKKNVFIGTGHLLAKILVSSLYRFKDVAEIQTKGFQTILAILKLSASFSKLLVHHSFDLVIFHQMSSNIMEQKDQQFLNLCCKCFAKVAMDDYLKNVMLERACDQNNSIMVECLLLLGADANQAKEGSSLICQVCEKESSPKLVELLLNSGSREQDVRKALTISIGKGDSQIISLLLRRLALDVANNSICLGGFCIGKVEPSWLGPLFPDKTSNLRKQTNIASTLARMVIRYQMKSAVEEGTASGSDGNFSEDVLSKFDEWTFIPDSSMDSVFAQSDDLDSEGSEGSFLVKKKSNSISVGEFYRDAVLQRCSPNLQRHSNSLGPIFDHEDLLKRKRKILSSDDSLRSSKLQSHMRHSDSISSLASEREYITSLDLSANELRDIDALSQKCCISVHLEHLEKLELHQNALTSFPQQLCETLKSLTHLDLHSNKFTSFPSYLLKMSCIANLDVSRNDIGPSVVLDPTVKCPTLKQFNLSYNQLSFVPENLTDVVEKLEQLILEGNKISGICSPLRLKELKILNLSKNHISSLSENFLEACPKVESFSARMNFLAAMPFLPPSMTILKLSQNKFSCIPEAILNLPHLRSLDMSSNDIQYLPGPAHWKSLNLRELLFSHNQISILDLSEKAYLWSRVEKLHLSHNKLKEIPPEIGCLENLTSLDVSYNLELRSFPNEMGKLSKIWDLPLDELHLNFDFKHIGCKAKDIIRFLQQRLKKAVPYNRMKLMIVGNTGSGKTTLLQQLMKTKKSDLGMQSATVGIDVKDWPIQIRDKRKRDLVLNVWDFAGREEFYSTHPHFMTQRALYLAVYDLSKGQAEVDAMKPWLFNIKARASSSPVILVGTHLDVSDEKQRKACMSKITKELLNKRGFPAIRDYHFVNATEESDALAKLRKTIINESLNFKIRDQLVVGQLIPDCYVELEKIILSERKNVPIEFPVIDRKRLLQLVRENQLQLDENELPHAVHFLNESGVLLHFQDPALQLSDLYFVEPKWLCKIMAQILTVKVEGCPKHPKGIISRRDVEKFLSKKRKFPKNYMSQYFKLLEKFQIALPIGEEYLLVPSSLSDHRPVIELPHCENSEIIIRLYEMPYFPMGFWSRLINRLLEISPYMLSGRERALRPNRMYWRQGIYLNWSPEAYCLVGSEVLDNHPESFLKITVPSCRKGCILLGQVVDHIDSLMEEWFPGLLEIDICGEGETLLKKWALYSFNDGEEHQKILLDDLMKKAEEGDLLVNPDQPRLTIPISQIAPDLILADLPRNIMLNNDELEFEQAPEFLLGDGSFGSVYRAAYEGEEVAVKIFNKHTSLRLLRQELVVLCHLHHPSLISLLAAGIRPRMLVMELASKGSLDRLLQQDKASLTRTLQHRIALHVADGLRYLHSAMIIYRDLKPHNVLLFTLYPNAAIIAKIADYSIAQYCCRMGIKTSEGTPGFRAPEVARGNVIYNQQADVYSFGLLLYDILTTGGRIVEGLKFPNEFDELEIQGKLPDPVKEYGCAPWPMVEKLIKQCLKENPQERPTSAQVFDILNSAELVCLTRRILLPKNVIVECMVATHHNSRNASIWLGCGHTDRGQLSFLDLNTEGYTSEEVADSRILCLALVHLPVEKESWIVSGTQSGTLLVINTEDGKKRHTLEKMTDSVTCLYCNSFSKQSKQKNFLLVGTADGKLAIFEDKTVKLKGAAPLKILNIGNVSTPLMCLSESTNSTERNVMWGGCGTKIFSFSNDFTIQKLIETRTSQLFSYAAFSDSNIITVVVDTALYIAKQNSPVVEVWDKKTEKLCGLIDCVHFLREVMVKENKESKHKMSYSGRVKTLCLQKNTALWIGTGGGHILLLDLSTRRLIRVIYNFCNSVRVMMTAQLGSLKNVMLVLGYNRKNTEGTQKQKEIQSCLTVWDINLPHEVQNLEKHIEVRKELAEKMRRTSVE
A general note: Time-resolved FRET reads energy transfer from a long-lived donor to a nearby acceptor.
Take `Cc1c(Nc2ncc(C(F)(F)F)c(C3CC3)n2)cnn1[C@@H]1CCc2cn[nH]c21` [Compounds A-84]: the IC50 was under 0.03 µM.
For `Cc1nn([C@@H]2CCNC2=O)cc1Nc1ncc(C(F)(F)F)c(C2CC2)n1` [Compounds A-85], the IC50 was under 0.03 µM.
`Cc1nn([C@H]2CCNC2=O)cc1Nc1ncc(C(F)(F)F)c(C2CC2)n1` [Compounds A-86] displayed an IC50 of under 0.03 µM.
Turning to `Cc1nn([C@@H]2CCc3cn[nH]c32)cc1Nc1ncc(C(F)(F)F)c(C2CC2)n1` [Compounds A-89], the IC50 was under 0.03 µM.
On the same count and under the same terms, under `Cc1nn([C@H]2CCc3cn[nH]c32)cc1Nc1ncc(C(F)(F)F)c(C2CC2)n1` [Compounds A-90] stands under 0.03 µM; under `Cc1c(Nc2ncc(C(F)(F)F)c(C3CC3)n2)cnn1[C@H]1CCNC1=O` [Compounds A-91], 0.03 to 0.06 µM.
Same read-out and setting: under `Cc1c(Nc2ncc(C(F)(F)F)c(C3CC3)n2)cnn1[C@H]1CCc2cn[nH]c21` [Compounds A-92] stands under 0.03 µM; under `Cc1nn([C@@]2(C)CCNC2=O)cc1Nc1ncc(C(F)(F)F)c(C2CC2)n1` [Compounds A-94], under 0.03 µM.
Same read-out and setting: under `Cc1nn([C@]2(C)CCNC2=O)cc1Nc1ncc(C(F)(F)F)c(C2CC2)n1` [Compounds A-95] stands under 0.03 µM.
As to `Cc1nn([C@@](C)(C(N)=O)C(F)F)cc1Nc1ncc(C(F)(F)F)c(C2CC2)n1` [Compounds A-96], the IC50 is under 0.03 µM.
Still for that read-out and setting: then `Cc1nn([C@](C)(C(N)=O)C(F)F)cc1Nc1ncc(C(F)(F)F)c(C2CC2)n1` [Compounds A-97], with 0.03 to 0.06 µM.

The assay is the same for the next values; noted with them: Table D-4; 5 nM LRRK2, 134 μM ATP, 60 minute reaction, 23° C.
`CNc1nc(Nc2cnn(C3(COC(F)F)CC3)c2C)ncc1C(F)(F)F` [Compound D-157] returned an IC50 of under 0.03 µM.
`CNc1nc(Nc2cnn(CC3(CC#N)CC3)c2C)ncc1C(F)(F)F` [Compound D-157a] gave an IC50 of under 0.03 µM.
With `CCNc1nc(Nc2cnn(CC3(CC#N)CC3)c2C)ncc1C(F)(F)F` [Compound D-158], the IC50 is under 0.03 µM.
The same measure, in the same setting: under `CNC(=O)C(F)(F)n1cc(Nc2ncc(C(F)(F)F)c(NC)n2)c(C)n1` [Compound D-159] stands under 0.03 µM.
Turning to `CCNC(=O)C(F)(F)n1cc(Nc2ncc(C(F)(F)F)c(NC)n2)c(C)n1` [Compound D-160], the IC50 is under 0.03 µM.
The same measure, in the same setting: then `CCNc1nc(Nc2cn(C(F)(F)C(=O)O)nc2C)ncc1C(F)(F)F` [Compound D-161], with under 0.03 µM; and `CNc1nc(Nc2cnn([C@H]3C[C@H](n4nccn4)C3)c2C)ncc1C(F)(F)F` [Compound D-162], with under 0.03 µM.
On the same count and under the same terms, then `CCNc1nc(Nc2cn(C(F)(F)C(N)=O)nc2Cl)ncc1C(F)(F)F` [Compound D-164], with under 0.03 µM.
The same measure, in the same setting: under `CNc1nc(Nc2cnn([C@H]3C[C@@H](n4cc(F)cn4)C3)c2C)ncc1C(F)(F)F` [Compound D-165] stands under 0.03 µM.
As for `CNc1nc(Nc2cn([C@H]3C[C@H](c4nncs4)C3)nc2C)ncc1C(F)(F)F` [Compound D-167], the IC50 is under 0.03 µM.
Still for that read-out and setting: then `CNc1nc(Nc2cnn([C@H]3C[C@H](c4nncs4)C3)c2C)ncc1C(F)(F)F` [Compound D-168], with under 0.03 µM; and `CNc1nc(Nc2cnn(C3CCCn4ccnc43)c2C)ncc1C(F)(F)F` [Compound D-169], with over 0.06 µM; and `COc1nc(Nc2cn(C3(C)CCn4ccnc43)nc2C)ncc1Br` [Compound D-178], with under 0.03 µM.
The molecule `COc1nc(Nc2cn(C(F)(F)C(N)=O)nc2C)ncc1Br` [Compound D-183] yielded an IC50 of under 0.03 µM.
On the same count and under the same terms, under `COc1nc(Nc2cnn([C@H]3C[C@@H](n4nccn4)C3)c2C)ncc1Br` [Compound D-184] stands under 0.03 µM; under `CNc1nc(Nc2cnn([C@H]3C[C@@H](n4nccn4)C3)c2C)ncc1Br` [Compound D-185], under 0.03 µM; under `COc1nc(Nc2cnn([C@H]3C[C@H](n4nccn4)C3)c2C)ncc1Cl` [Compound D-186], under 0.03 µM.
Still for that read-out and setting: then `CCNc1nc(Nc2cnn([C@H]3C[C@H](N4CCN(C)CC4)C3)c2C)ncc1C(F)(F)F` [Compound D-187], with under 0.03 µM; and `CNc1nc(Nc2cnn([C@H]3C[C@@H](n4cc(F)cn4)C3)c2C)ncc1Br` [Compound D-192], with under 0.03 µM.
The molecule `CNc1nc(Nc2cnn([C@H]3C[C@H](n4cc(F)cn4)C3)c2C)ncc1Br` [Compound D-193] came in with an IC50 of under 0.03 µM.
On the same count and under the same terms, under `CCNc1nc(Nc2cnn([C@H]3C[C@@H](N4CCN(C)CC4)C3)c2C)ncc1C(F)(F)F` [Compound D-194] stands under 0.03 µM; under `CCNc1nc(Nc2cnn([C@H]3C[C@H](N4CC[C@H](F)C4)C3)c2C)ncc1C(F)(F)F` [Compound D-195], under 0.03 µM.
Same read-out and setting: then `CCNc1nc(Nc2cnn([C@H]3C[C@@H](N4CC[C@H](F)C4)C3)c2C)ncc1C(F)(F)F` [Compound D-196], with under 0.03 µM.
On the same count and under the same terms, under `CCNc1nc(Nc2cnn([C@H]3C[C@H](N4CC[C@@H](F)C4)C3)c2C)ncc1C(F)(F)F` [Compound D-197] stands under 0.03 µM; under `CCNc1nc(Nc2cnn([C@H]3C[C@@H](N4CC[C@@H](F)C4)C3)c2C)ncc1C(F)(F)F` [Compound D-198], under 0.03 µM; under `CCNc1nc(Nc2cn(C(C)(C#N)CF)nc2C)ncc1C(F)(F)F` [Compound D-203], under 0.03 µM.
For the molecule `CCNc1nc(Nc2cn(C(C#N)(CF)CF)nc2C)ncc1C(F)(F)F` [Compound D-204], the IC50 was under 0.03 µM.
On the same count and under the same terms, then `CCNc1nc(Nc2cn([C@H]3CCc4ncsc43)nc2C)ncc1C(F)(F)F` [Compounds D-86], with under 0.03 µM.
The molecule `CNc1nc(Nc2cn(C(C)COC(F)F)nc2C)ncc1C(F)(F)F` [Compounds D-96] showed an IC50 of under 0.03 µM.
Turning to `CCNc1nc(Nc2cn(C3Cc4nccn4C3)nc2C)ncc1C(F)(F)F` [Compounds D-102], the IC50 was under 0.03 µM.
As for `CNc1nc(Nc2cnn(C3CCC(n4nccn4)C3)c2C)ncc1C(F)(F)F` [Compounds D-107], the IC50 was under 0.03 µM.
Molecule `CNc1nc(Nc2cnn([C@@H]3CCn4cncc43)c2C)ncc1C(F)(F)F` [Compounds D-121] registered an IC50 of under 0.03 µM.
With `CCNc1nc(Nc2cn([C@H]3CCn4nccc43)nc2C)ncc1C(F)(F)F` [Compounds D-122], the IC50 was under 0.03 µM.
`CNc1nc(Nc2cnn([C@@H]3CCC(n4nccn4)C3)c2C)ncc1C(F)(F)F` (stereo partly drawn) [Compounds D-133] yielded an IC50 of under 0.03 µM.
On the same count and under the same terms, under `CNc1nc(Nc2cnn([C@H]3CCC(n4nccn4)C3)c2C)ncc1C(F)(F)F` (stereo partly drawn) [Compounds D-134] stands under 0.03 µM; under `CNc1nc(Nc2cnn([C@@H]3CCC(n4nccn4)C3)c2C)ncc1C(F)(F)F` (stereo partly drawn) [Compounds D-141], under 0.03 µM.
In turn, `COc1nc(Nc2cnn([C@H]3CCn4ccnc43)c2C)ncc1C(F)(F)F` [Compounds D-142] came in with an IC50 of over 0.06 µM.
Still for that read-out and setting: then `CNc1nc(Nc2cn([C@H]3CCC(n4ccnn4)C3)nc2C)ncc1C(F)(F)F` (stereo partly drawn) [Compounds D-143], with 0.03 to 0.06 µM.
Same read-out and setting: then `CNc1nc(Nc2cnn([C@H]3CCC(n4nccn4)C3)c2C)ncc1C(F)(F)F` (stereo partly drawn) [Compounds D-149], with 0.03 to 0.06 µM.
As to `CCNc1nc(Nc2cnn([C@H]3CCCn4ccnc43)c2C)ncc1C(F)(F)F` [Compounds D-151], the IC50 was under 0.03 µM.
Molecule `CCNc1nc(Nc2cnn([C@@H]3CCn4ccnc43)c2C)ncc1C(F)(F)F` [Compounds D-152] showed an IC50 of under 0.03 µM.
On to `CNc1nc(Nc2cnn([C@H]3CCC(n4nccn4)C3)c2C)ncc1C(F)(F)F` (stereo partly drawn) [Compounds D-156], for which the concentration for half-maximal inhibition (IC50) was under 0.03 µM.
